Assay results as given in patent US5420128A, “Pyrimidine derivatives, method of manufacturing the same, and androgen inhibitor” (Otsuka Pharmaceutical Co., Ltd., priority 1990, dated 1995).

Legend:
[1] = target: T1, rat prostate androgen receptor (Rattus norvegicus, UniProt P15207); test: inhibitory activity on binding of ^3 H-mibolerone on rat prostate androgen receptor; conditions: ^3 H-mibolerone 1 nM, triamcinolone acetonide 5 μM, rat ventral prostate cytosol, 20 hours at 0° C.; read-out: Inhibitory activity on mibolerone specific binding [IC50 (M)]
T1 construct: the supernatant was obtained as cytoplasm fraction; from tissue; host or cells: cytosol (105000×g supernatant) of rat ventral prostate, 24 hours after castration
T1 sequence (P15207 1-902): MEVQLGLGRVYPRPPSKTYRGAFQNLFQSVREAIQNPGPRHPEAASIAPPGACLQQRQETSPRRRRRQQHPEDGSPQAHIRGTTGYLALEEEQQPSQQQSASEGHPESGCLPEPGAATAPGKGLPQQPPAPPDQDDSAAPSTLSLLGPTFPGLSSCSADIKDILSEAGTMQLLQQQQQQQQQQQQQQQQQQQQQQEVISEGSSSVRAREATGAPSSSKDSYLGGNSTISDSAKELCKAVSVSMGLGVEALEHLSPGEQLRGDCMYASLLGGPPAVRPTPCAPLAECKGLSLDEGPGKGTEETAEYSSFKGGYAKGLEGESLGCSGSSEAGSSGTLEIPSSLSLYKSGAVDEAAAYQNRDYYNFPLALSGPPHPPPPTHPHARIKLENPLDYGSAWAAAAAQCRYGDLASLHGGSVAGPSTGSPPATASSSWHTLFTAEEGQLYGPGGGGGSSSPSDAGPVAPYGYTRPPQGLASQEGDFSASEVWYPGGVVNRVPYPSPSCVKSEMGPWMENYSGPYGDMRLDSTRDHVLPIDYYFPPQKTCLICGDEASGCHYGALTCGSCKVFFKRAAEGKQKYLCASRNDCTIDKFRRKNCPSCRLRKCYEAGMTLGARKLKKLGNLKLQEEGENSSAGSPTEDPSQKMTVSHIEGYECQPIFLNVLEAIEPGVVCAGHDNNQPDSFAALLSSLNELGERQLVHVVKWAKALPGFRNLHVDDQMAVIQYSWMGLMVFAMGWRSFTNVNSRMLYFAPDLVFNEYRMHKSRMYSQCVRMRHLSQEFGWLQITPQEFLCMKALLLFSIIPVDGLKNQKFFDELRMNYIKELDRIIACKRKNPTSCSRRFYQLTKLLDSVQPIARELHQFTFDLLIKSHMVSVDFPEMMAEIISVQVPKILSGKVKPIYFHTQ
Procedure: B. Measurement of inhibitory activity on binding of ^3 H-mibolerone on rat prostate androgen receptor
The rat was sacrificed 24 hours after castration, and the ventral lobe of prostate was removed, and was gently homogenized, in ice-cooling water bath, at first by using Polytron and then using Potter type homogenizer, in three-fold amount of buffer solution A (1.5 mM EDTA, 2 mM dithiothreitol, 10 mM molybdate sodium, 10 % by volume of glycerol, 10 mM NaF, 25 mM phosphate sodium, pH 7.2). The obtained homogenate was filtrated through double gauze, and centrifuged at 105000×g for 60 minutes at 4° C., and the supernatant was obtained as cytoplasm fraction.
(2) Measurement of specific binding of ^3 H-mibolerone on prostate cytoplasm androgen receptor
To the cytoplasm fraction obtained in (1), ^3 H-mibolerone (87.0 Ci/mmol) was added, so that a final concentration is adjusted to 1 nM, and at the same time, in order to inhibit binding of ^3 H-mibolerone to progestin receptor, triamsinolone acetonide was added to a final concentration of 5 μM, and the final volume was adjusted to 0.4 ml with buffer solution A, and the reaction mixture was incubated for 20 hours at 0° C. After incubation, 0.5 ml of 60% hydroxylapatite slurry (washed and equilibrate with a buffer solution B: 10 mM NaH2 P04, 20 mM tris-hydrochloric acid, pH 7.2) was added, and incubated for 10 minutes at 0° C., the solution was transferred onto a glass fiber filter, and washed five times with 5 ml portions of buffer solution B containing 0.1% (weight/volume) of Triton X-100, to remove free ^3 H-mibolerone. This glass fiber was transferred into vial, and 10 ml of aquasol-2 was added, and the radioactivity was measured, and the total binding amount of ^3 H-mibolerone on prostate cytoplasm androgen receptor was determined.
The nonspecific binding amount was determined similarly by adding an unlabeled 5α-DHT in the reaction solution to a final concentration of 1 μM. The difference between the total binding amount and nonspecific binding amount was determined as the specific binding amount on the androgen receptor.
(3) Inhibitory activity of sample compounds on ^3 H-mibolerone specific binding
The compounds obtained in the experiments were added simultaneously with ^3 H-mibolerone at different concentrations to incubate same as in (2), and the specific binding amount of 3H-mibolerone on androgen receptor was determined. Comparing this value with the value obtained in (2), the IC50 value of inhibitory activity of the compounds on ^3 H-mibolerone specific binding was determined.

[2] = target: T1, rat prostate androgen receptor; test: inhibitory activity on binding of ^3 H-5α-DHT on rat prostate androgen receptor; conditions: ^3 H-5α-DHT 1 nM, rat ventral prostate cytosol, about 20 hours at 0° C.; read-out: Inhibitory activity on 5α-DHT specific binding [IC50 (M)]
Procedure: The compounds obtained in Examples were evaluated in the following pharmacological studies A and B. The pharmacological study A was conducted in conformity with J.B.C. 256 (15) 7998-8005, 1981.
A. Measurement of inhibitory activity on binding of ^3 H-5α-[…] (^3 H-5α,-DHT) on rat prostate androgen receptor
(1) Preparation of cytosol from rat prostate
The rat was sacrificed 24 hours after castration, and the ventral lobe of prostate was removed, and was gently homogenized, on ice water bath, by using a Potter homogenizer in three-fold amount of 0.25M sucrose-TME buffer solution (50 mM tris-HCl (pH 7.4), 0.5 mM mercaptoethanol, and 0.1 mM EDTA-2 Na). The homogenate was filtrated through double gauze, and ultracentrifuged at 105000×g for 60 minutes, and the supernatant was used as androgen receptor.
(2) Measurement of ^3 H-5α-DHT specific binding on prostate cytoplasmic androgen receptor
To the cytosol obtained in (1), ^3 H-5α-DHT (47.8 Ci/mmol) was added, so that a final concentration is adjusted to 1 nM, and 0.25 M sucrose-TME buffer was added to adjust the final volume to 0.5 ml, and the reaction mixture was incubated for about 20 hours at 0° C. An ammonium sulfate solution dissolved in 0.25 M sucrose-TME buffer was mixed to be 35% saturation, and after standing for 90 minutes at 0° C., the mixture was centrifuged at 10000×g for 10 minutes at 4° C., and the precipitate was obtained.
This precipitate was suspended again in 0.8 ml of the above buffer solution, and furthermore in order to remove the free type ^3 H-5α-DHT, 0.2 ml of dextran-carbon powder suspension (4% activated carbon, 0.1% dextran T-70, and 0.1% gelatin dissolved in the above buffer solution) was added and mixed, and the mixture was let stand for 10 minutes at 0° C. At 4° C., in succession, the mixture was centrifuged at 3000×g for 10 minutes, and 0.5 ml of the supernatant was transferred into a vial, and 10 ml of aquasol-2 was added, and radioactivity was measured, and the total binding amount of ^3 H-5α-DHT on the prostate cytoplasma androgen receptor was determined. The nonspecific binding amount was similarly determined by adding a non-radioactive ligand (5α-DHT) to the reaction solution to a final concentration of 1 μM. The difference between the total binding amount and nonspecific binding amount was determined as the specific binding amount on the androgen receptor.
(3) Inhibitory activity of sample compounds on ^3 H-5α-DHT specific binding
The compounds obtained in Examples were incubated with ^3 H-5α-DHT at several concentrations same as in (2), and the specific binding amount of ^3 H-5α-DHT on the androgen receptor was determined. Comparing the obtained value with the value of (2), the IC50 value of the test compounds on ^3 H-5α-DHT specific binding was determined. The following compounds were used as the positive controls.

Structure (SMILES) | IC50 [1] [M] | IC50 [2] [M]
Cc1cc(-c2cnn3c(O)ncnc23)ccc1SCc1ccccc1 [Example 79, 8-(4-Benzylthio-3-methylphenyl)-4-hydroxypyrazolo[1,5-a]-1,3,5-triazine] |  | 1.1e-07
Cc1ccccc1Sc1ccc(-c2cnn3c(O)ncnc23)cc1C [Example 82, 4-Hydroxy-8-[3-methyl-4-(2-methylphenylthio)phenyl]pyrazolo[1,5-a]-1,3,5-triazine] |  | 1.1e-06
COc1cccc(Sc2ccc(-c3cnn4c(O)ncnc34)cc2C)c1 [Example 85, 4-Hydroxy-8-[4-(3-methoxyphenylthio)-3-methyl]phenylpyrazolo[1,5-a]-1,3,5-triazine] |  | 1.6e-07
Cc1ccc(NS(=O)(=O)c2ccc(-c3cnn4c(O)ncnc34)cc2)cc1 [Example 88, 4-Hydroxy-8-[4-(4-methylphenylaminosulfonyl)phenyl]pyrazolo[1,5-a]-1,3,5-triazine] |  | < 5e-06
CCc1ccc(NS(=O)(=O)c2ccc(-c3cnn4c(O)ncnc34)cc2)cc1 [Example 89, 8-[4-(4-Ethylphenylaminosulfonyl)phenyl]-4-hydroxypyrazlo[1,5-a]-1,3,5-triazine] |  | < 5e-06
CCc1cccc(NS(=O)(=O)c2ccc(-c3cnn4c(O)ncnc34)cc2)c1 [Example 90, 8-[4-(3-ethylphenylaminosulfonyl)phenyl]-4-hydroxypyrazolo[1,5-a]-1,3,5-triazine] |  | < 5e-06
CCc1ccccc1NS(=O)(=O)c1ccc(-c2cnn3c(O)ncnc23)cc1 [Example 91, 8-[4-(2-ethylphenylaminosulfonyl)phenyl]-4-hydroxypoyrazolo[1,5-a]-1,3,5-triazine] |  | < 5e-06
CC(C)c1ccc(NS(=O)(=O)c2ccc(-c3cnn4c(O)ncnc34)cc2)cc1 [Example 92, 4-Hydroxy-8-[4-(4-isopropylphenylaminosulfonyl)phenyl]pyrazolo[1,5-a]-1,3,5-triazine] |  | < 5e-06
O=S(=O)(Nc1cccnc1)c1ccc(-c2cnn3c(O)ncnc23)cc1 [Example 97, 4-Hydroxy-8-[4-(3-pyridylaminosulfonyl)phenyl]pyrazolo[1,5-a]-1,3,5-triazine] |  | 5e-06
O=S(=O)(NC1CCCCC1)c1ccc(-c2cnn3c(O)ncnc23)cc1 [Example 98, 8-(4-cyclohexylaminosulfonylphenyl)-4-hydroxypyrazolo[1,5-a]-1,3,5-triazine] |  | 3.6e-07
COc1cc(-c2cnn3c(O)ncnc23)ccc1Sc1ccccc1 [Example 101, 4-Hydroxy-8-(3-methoxy-4-phenylthiophenyl)pyrazolo [1,5-a]-1,3,5-triazine] | 1.5e-07 | 3e-07
Oc1ncnc2c(-c3ccc(Sc4ccccc4)c(Cl)c3)cnn12 [Example 102, 8-(3-chloro-4-phenylthiophenyl)-4-hydroxypyrazolo[1,5-a]-1,3,5-triazine] |  | 2.2e-06
Cc1cc(-c2cnn3c(O)ncnc23)ccc1S(=O)(=O)Nc1ccccc1 [Example 103, 4-Hydroxy-8-(3-methyl-4-phenylaminosulfonylphenyl)pyrazolo[1,5-a]-1,3,5-triazine] |  | 2.5e-07

The next lines start with the values.

IC50 [1] [M] | IC50 [2] [M] | Structure (SMILES)
9e-08 | 8.5e-07 | Oc1ccnc2c(-c3ccc(Sc4ccccc4)cc3)cnn12 [Example 3, 7-Hydroxy-3-(4-phenylthiophenyl)pyrazolo[1,5-a]pyrimidine]
5e-07 | 5e-07 | Cc1cc(O)n2ncc(-c3ccc(Sc4ccccc4)cc3)c2n1 [Example 5, 7-Hydroxy-5,methyl-3-(4-phenylthiophenyl)pyrazolo[1,5-a]pyrimidine]
4.6e-07 | 9.6e-07 | Oc1ncnc2c(-c3ccc(Sc4ccccc4)cc3)cnn12 [Example 77, 4-Hydroxy-8-(4-phenylthiophenyl)pyrazolo[1,5-a]-1,3,5-triazine]
 | 1.5e-07 | Cc1cc(-c2cnn3c(O)ncnc23)ccc1Sc1ccccc1 [Example 81, 4-Hydroxy-8-(3-methyl-4-phenylthiophenyl)pyrazolo[1,5-a]-1,3,5-triazine]
 | 1.3e-07 | Cc1cccc(Sc2ccc(-c3cnn4c(O)ncnc34)cc2C)c1 [Example 83, 4-Hydroxy-8-[3-methyl-4-(3-methylphenylthio)phenyl]pyrazolo[1,5-a]-1,3,5-triazine]
 | 1.5e-06 | Cc1ccc(Sc2ccc(-c3cnn4c(O)ncnc34)cc2C)cc1 [Example 84, 4-Hydroxy-8-[3-methyl-4-(4-methylphenylthio)phenyl]pyrazolo[1,5-a]-1,3,5-triazine]
 | 1.2e-07 | COc1ccc(Sc2ccc(-c3cnn4c(O)ncnc34)cc2C)cc1 [Example 86, 4-Hydroxy-8-[4-(4-methoxyphenylthio)-3-methyl]phenylpyrazolo[1,5-a]-1,3,5-triazine]
4e-08 | 1.3e-07 | O=S(=O)(Nc1ccccc1)c1ccc(-c2cnn3c(O)ncnc23)cc1 [Example 87, 4-Hydroxy-8-(4-phenylaminosulfonylphenyl)pyrazolo[1,5-a]-1,3,5-triazine]
 | 6e-07 | N#Cc1ccc(NS(=O)(=O)c2ccc(-c3cnn4c(O)ncnc34)cc2)cc1 [Example 94, 8-[4-(4-cyanophenylaminosulfonyl)phenyl]-4-hydroxypyrazolo[1,5-a]-1,3,5-triazine]
 | 1.2e-06 | O=S(=O)(Nc1ccc(Cl)cc1)c1ccc(-c2cnn3c(O)ncnc23)cc1 [Example 95, 8-[4-(4-chlorophenylaminosulfonyl)phenyl]-4-hydroxypyrazolo[1,5-a]-l,3,5-triazine]
 | 4e-07 | Cc1cc(-c2cnn3c(O)ncnc23)ccc1Sc1ccc(Br)cc1 [Example 100, 8-[4-(4-bromophenylthio)-3-methylphenyl]-4-hydroxypyrazolo[1,5-a]-1,3,5-triazine]
